# Results from US20120308567A1, “USE OF TYROSINE KINASE INHIBITORS FOR TREATMENT OF PROLACTINOMA” (CEDARS-SINAI MEDICAL CENTER, priority 2010, published 2012).
# How the values were obtained:
# [1] = test system: GH3 cells stably expressing HER2CA; test: Soft agarose colony-forming assay, HER2CA transfectants; format: cell-based, rat; conditions: for suppression of colony formation in soft agar: Her2CA-GH3 cells
# Method: B. GH3 cells stably expressing HER2CA or pcDNA3 were plated (4,000 per well) in 96 well plates for the indicated times, and WST assay performed. C. […] Values are mean±SEM. *p<0.05, ** p<0.01, ^‡p<0.05 vs pcDNA3 control, ^†p<0.05 vs HER2CA control, ^‡‡p<0.05 vs pcDNA3 control, ^††p<0.05 vs HER2CA control.
# Base layers consisting of growth medium containing 0.6% low-melting point agarose (Invitrogen) were poured onto 6-well plates and allowed to solidify. Cells (8×10^3 per well) were plated in triplicate in top layers consisting of growth medium containing 0.3% agarose. Seven to ten days later, cells were stained with 0.2% iodonitrotetrazolium chloride (Invitrogen), and colonies composed of 50 cells were counted manually in 5 randomly selected fields.
# [2] = test system: GH3 cells stably expressing HER2CA; test: RIA of PRL and GH secretion in culture medium of GH3 stable transfectants; format: cell-based, rat; conditions: HER2CA GH3 cells, 1 μM
# Method: μM) for the indicated times, and Realtime PCR analysis performed. C. GH and PRL secretion in the culture medium determined by RIA. Hormone secretion levels were normalized for cell numbers, Values are mean±SEM. *p<0.05, **p<0.01.
# GH3 rat lacto-somatotroph tumor cells secreting PRL and GH were purchased from the American Type Culture Collection. HER2CA cells were generated by transfection with pcDNA3-HER2CA (V654E) purchased from Addgene (Addgene plasmid 16259). Stable colonies were selected in the presence of 500 μg/ml G418 (Invitrogen). A vector control cell line pcDNA3 was simultaneously established by transfecting pcDNA3 that lacked inserted cDNA. After selection and propagation of stable transfectants, cells were cultured in DMEM/F12 medium containing 15% horse serum, 2.5% FBS, penicillin/streptomycin, and 500 μg/m G418. After synchronization by serum starvation (medium containing 0.2% bovine serum albumin for ˜24 h), cells with treatment agents was grown in fresh serum-depleted medium (0.2% bovine serum albumin), and samples collected at the indicated times.
# RIAs for rat GH and PRL were performed in duplicate, using reagents provided by the National Hormone and Pituitary Program, National Institute of Diabetes and Digestive and Kidney Diseases (Harbor-UCLA Medical Center, Torrance, Calif., USA). Iodination of GH and PRL (5 μg) with iodine-125 (500 μCi) (PerkinElmer life & Analytical Sciences, Boston, Mass., USA) mixed with 0.1 mg Iodo-Gen (Pierce, Rockford, Ill.) was performed using 10-ml columns prepared by G-75 Sephadex (Sigma Chemical Co.). Low interspecies cross-reactivity of the GH and PRL assays were previously shown (8).
# [3] = test system: GH3 cells stably expressing HER2CA; test: Cell proliferation assay (cell counts); format: cell-based, rat; conditions: for cell number: HER2CA GH3 cells, 0.1-10 μM, 24 h treatment
# Method: pcDNA3 and HER2CA cells were plated at a density of 2×10^4 per well in 12-well plates or 4×10^3 cells per well in 96-well plates with growth medium. For 12-well plates, cells were counted by hemocytometer at the indicated times. For 96-well plates, premixed WST-1 cell proliferation reagent (Roche Molecular Biochemicals) was added (1:10) at the indicated times and incubated for 4 h at 37° C. in a humidified atmosphere maintained at 5% CO2, and absorbance was then measured at 450 nm. WST-1 is a colorimetric assay for quantification of cell proliferation and cell viability, based on the cleavage of the tetrazolium salt by mitochondrial dehydrogenases in viable cells.
# [4] = test system: HER2CA GH3 tumors; test: HER2CA GH3 subcutaneous tumors in Wistar-Furth rats; format: in vivo, rat; conditions: for suppression of postmortem tumor weight / suppression of serum PRL levels / HER2CA tumor volume: Wistar-Furth rats; for suppression of postmortem tumor weight / suppression of serum PRL levels: 100 mg/kg daily oral gavage; for HER2CA tumor volume: 100 mg/kg daily oral gavage from day 3 after inoculation, vehicle 924±48
# Method: B-C. […] (B). Tumor weights were measured after euthanasia (C). Serum PRL levels were measured by RIA (D), and ex vivo Realtime PCR performed (E). Tumor volumes were calculated using the formula, π/6×large diameter×small diameter^2.
# In accordance with Institutional Animal Care and Use Committee guidelines, 4-5 wk old female Wistar-Furth rats (Harlan Sprague Dawley, Inc.) were inoculated with pcDNA3 (n=6) or HER2CA (n=6) cells (3×10^6 cells/rat). Rats were fed with a commercial pelleted diet ad libitum and tap water. Tumor volumes were measured with a caliper and calculated using the formula, π/6×large diameter×small diameter^2 as previously described (8). […] 500 μl blood was collected twice for hormone assessment (before inoculation, 2 days after inoculation) by retro-orbital bleeding. This procedure was performed under isoflurane inhalational anesthesia via a nose cone connected to a rodent anesthesia machine (Kent Scientific Corporation). On the last treatment day (day 7), rats were euthanized within 3 h of drug administration. Cardiac blood was collected with 18-gauge syringes and tumors excised and weighed. Fragments of each tumor were fixed in formalin and embedded in paraffin for immunohistochemical staining, preserved in RNA later solution (Ambion) for subsequent RNA extraction and frozen in liquid nitrogen for subsequent protein extraction.
# To evaluate in vivo effects of HER2 overexpression on lactosomatotroph tumor growth, HER2CA or pcDNA3 transfectants were inoculated subcutaneously into female Wistar-Furth rats. […] Next, the effects of lapatinib administration on tumor growth and hyperprolactinemia were examined. […] After euthanasia, tumors were excised and immediately weighed and processed.
# [5] = test system: human prolactinoma cells; test: RIA of PRL in culture media of primary human prolactinoma cell cultures; format: cell-based; conditions: for suppression of PRL secretion into the culture medium: 24 hr
# Method: A, B, D, and E. After trans-sphenoidal surgery of human prolactinomas, tumor cells were cultured. […] PRL levels in culture media were measured using RIA (B). H&E and PRL staining of tumor and confocal immunocytochemistry of EGFR and HER2 (Tumor A) (C), or for Tumor B (F). Magnification of these figures was 100×. […] PRL levels in culture media were measured using RIA (E). Prolactinoma cells (Tumor B) were treated with U0126 (0.1-5 μM) for 24 hr, and Realtime PCR of PRL performed (G).
# Human prolactinoma tissues were obtained at the time of surgery (Pituitary Center, Cedars-Sinai Medical Center) and transferred in 0.3% BSA containing DMEM according to an IRB-approved protocol. After washing with medium, tumor tissues were chopped with a sterile scalpel into approximately 1-2 mm pieces. Tissues were rinsed and digested with DMEM containing 0.3% BSA, 0.35% collagenase, and 0.15% hyaluronidase at 37° C. for 30 min The mixture was centrifuged at 1,500 rpm for 5 min at 4° C., and the cell pellet resuspended in an appropriate volume of culture medium containing 10% FBS and antibiotics in 48 well plates. After 24 hr incubation with serum depleted starvation medium (DMEM with 0.3% BSA), treatment agents were added with fresh serum-depleted medium (0.3% BSA), and medium collected for RIA. RNA was extracted after 24 hr treatment. Medium was also collected at baseline. To normalize for cell number effect, the PRL value of treated medium was divided by that of pre-treatment starvation medium to obtain a treated value for each well (n=4).
# [6] = Tumor A, lapatinib 0.1-10 μM or gefitinib 10 μM
Structure (SMILES),suppression of colony formation in soft agar [1] [%],"PRL secretion, time course of suppression ([2]; 24 and 48 h)",cell number [3],suppression of postmortem tumor weight [4] [%],suppression of serum PRL levels [4] [%],HER2CA tumor volume [4] [mm^3],"suppression of PRL secretion into the culture medium [5, 6] [%]","suppression of PRL secretion into the culture medium ([5]; Tumor B, 0.01-10 μM) [%]","colony formation in soft agar ([1]; HER2CA GH3 cells, 0.1-10 μM every third day)",suppression of PRL secretion ([2]; 24 h) [%],suppression of PRL secretion ([2]; 48 h) [%],"suppression of cell number, HER2 overexpressing vs pcDNA3 transfectants ([3]; pcDNA3 and HER2CA transfectants compared)","change in Her2CA-GH3 tumor size ([4]; rats, after one week of treatment) [%]","suppression of human PRL secretion ([5]; human primary prolactinoma tumor cell cultures, tumor not named) [%]"
COc1cc2ncnc(Nc3ccc(F)c(Cl)c3)c2cc1OCCCN1CCOCC1 [gefitinib],~50,suppressed PRL secretion only at 24 h,decreased in a dose-dependent manner,~30,~40,695±63,~50,~40,–,–,–,–,–,–
"CS(=O)(=O)CCNCc1ccc(-c2ccc3ncnc(Nc4ccc(OCc5cccc(F)c5)c(Cl)c4)c3c2)o1 [lapatinib, Lapatinib]",~80,–,decreased in a dose-dependent manner,~40,~50,549±45,~70,~60,fewer HER2CA colonies,40,40,enhanced in HER2 overexpressing transfectants,−40,~70
